From ChEMBL document CHEMBL4304773, “Nitroimidazole-containing compounds and their antibacterial and antitubercular activities” (2019)
Converted amounts (≈) assume the structure as drawn.

Experiments:
Assay type in all cases: functional
[1] = tested on: Escherichia coli; test: Antibacterial activity against Escherichia coli
[2] = tested on: Pseudomonas aeruginosa; test: Antibacterial activity against Pseudomonas aeruginosa
[3] = tested on: Enterococcus faecalis; test: Antibacterial activity against Enterococcus faecalis
[4] = tested on: Staphylococcus aureus; test: Antibacterial activity against Staphylococcus aureus ATCC 25923
[5] = tested on: Staphylococcus aureus; test: Antibacterial activity against Staphylococcus aureus ATCC 29213
[6] = tested on: Staphylococcus aureus; test: Antibacterial activity against methicillin-resistant Staphylococcus aureus N315
[7] = tested on: Pseudomonas aeruginosa; test: Antibacterial activity against Pseudomonas aeruginosa ATCC 27853
[8] = tested on: Acinetobacter baumannii; test: Antibacterial activity against Acinetobacter baumannii
[9] = tested on: Escherichia coli; test: Antibacterial activity against Escherichia coli ATCC 25922
[10] = tested on: Klebsiella pneumoniae; test: Antibacterial activity against Klebsiella pneumoniae
[11] = tested on: Escherichia coli; test: Antibacterial activity against Escherichia coli infected in mouse
[12] = tested on: Staphylococcus aureus; test: Antibacterial activity against Staphylococcus aureus ATCC 25923 after 24 hrs by NCCLS method; details: ATCC 25923, 24 h
[13] = tested on: Bacillus subtilis; test: Antibacterial activity against Bacillus subtilis ATCC 530 after 24 hrs by NCCLS method; details: ATCC 530, 24 h
[14] = tested on: Escherichia coli; test: Antibacterial activity against Escherichia coli ATCC 25922 after 24 hrs by NCCLS method; details: ATCC 25922, 24 h
[15] = tested on: Pseudomonas aeruginosa; test: Antibacterial activity against Pseudomonas aeruginosa ATCC 27853 after 24 hrs by NCCLS method; details: ATCC 27853, 24 h
[16] = tested on: Staphylococcus aureus; test: Antibacterial activity against Staphylococcus aureus
[17] = tested on: Streptococcus pyogenes; test: Antibacterial activity against Streptococcus pyogenes

Structure (SMILES)	MIC [1]	MIC [2]	MIC [3]	MIC [4]	MIC [5]	MIC [6]	MIC [7]	MIC [8]	MIC [9]	MIC [10]	other results
C=CCN1CCN(c2ccc3c4c(cccc24)C(=O)N(CC(O)Cn2c([N+](=O)[O-])cnc2C)C3=O)CC1 (stereo not drawn)	13 to 1020 µM (≈ 6.56 to 515 µg/mL)	13 to 1020 µM (≈ 6.56 to 515 µg/mL)	13 to 1020 µM (≈ 6.56 to 515 µg/mL)	13 to 1020 µM (≈ 6.56 to 515 µg/mL)	13 to 1020 µM (≈ 6.56 to 515 µg/mL)	13 to 1020 µM (≈ 6.56 to 515 µg/mL)	13 to 1020 µM (≈ 6.56 to 515 µg/mL)	13 to 1020 µM (≈ 6.56 to 515 µg/mL)	13 to 1020 µM (≈ 6.56 to 515 µg/mL)	13 to 1020 µM (≈ 6.56 to 515 µg/mL)	
Cc1ncc([N+](=O)[O-])n1CC(O)CN1C(=O)c2cccc3c(N4CCCC4)ccc(c23)C1=O (stereo not drawn)	69 to 1140 µM (≈ 31 to 512 µg/mL)	69 to 1140 µM (≈ 31 to 512 µg/mL)	69 to 1140 µM (≈ 31 to 512 µg/mL)	69 to 1140 µM (≈ 31 to 512 µg/mL)	69 to 1140 µM (≈ 31 to 512 µg/mL)	69 to 1140 µM (≈ 31 to 512 µg/mL)	69 to 1140 µM (≈ 31 to 512 µg/mL)	69 to 1140 µM (≈ 31 to 512 µg/mL)	69 to 1140 µM (≈ 31 to 512 µg/mL)	69 to 1140 µM (≈ 31 to 512 µg/mL)	
CCn1cc(C(=O)OC)c(=O)c2cc(F)c(N3CCN(CCn4c([N+](=O)[O-])cnc4C)CC3)cc21											ED50 [11]: 3.5 to 13.2 mg/kg
Cc1nn(-c2ccccc2)c(Oc2ccccc2)c1/C=N/NC(=O)Cn1c([N+](=O)[O-])cnc1C											MIC [12]: 3.12 to 50 µg/mL (≈ 6.79 to 109 µM); MIC [13]: 3.12 to 50 µg/mL (≈ 6.79 to 109 µM); MIC [14]: 3.12 to 50 µg/mL (≈ 6.79 to 109 µM); MIC [15]: 3.12 to 50 µg/mL (≈ 6.79 to 109 µM)
Cc1ccc(-n2nc(C)c(/C=N/NC(=O)Cn3c([N+](=O)[O-])cnc3C)c2Oc2ccc(Cl)cc2)cc1											MIC [12]: 3.12 to 50 µg/mL (≈ 6.14 to 98.4 µM); MIC [13]: 3.12 to 50 µg/mL (≈ 6.14 to 98.4 µM); MIC [14]: 3.12 to 50 µg/mL (≈ 6.14 to 98.4 µM); MIC [15]: 3.12 to 50 µg/mL (≈ 6.14 to 98.4 µM)
Cc1ncc([N+](=O)[O-])n1CC(O)CN1C(=O)c2cccc3c(N4CCNCC4)ccc(c23)C1=O (stereo not drawn)	69 to 1140 µM (≈ 32 to 530 µg/mL)	69 to 1140 µM (≈ 32 to 530 µg/mL)	69 to 1140 µM (≈ 32 to 530 µg/mL)	69 to 1140 µM (≈ 32 to 530 µg/mL)	69 to 1140 µM (≈ 32 to 530 µg/mL)	69 to 1140 µM (≈ 32 to 530 µg/mL)	69 to 1140 µM (≈ 32 to 530 µg/mL)	69 to 1140 µM (≈ 32 to 530 µg/mL)	69 to 1140 µM (≈ 32 to 530 µg/mL)	69 to 1140 µM (≈ 32 to 530 µg/mL)	
Cc1ccc(-n2nc(C)c(/C=N/NC(=O)Cn3c([N+](=O)[O-])cnc3C)c2Oc2ccccc2)cc1											MIC [12]: 3.12 to 50 µg/mL (≈ 6.59 to 106 µM); MIC [13]: 3.12 to 50 µg/mL (≈ 6.59 to 106 µM); MIC [14]: 3.12 to 50 µg/mL (≈ 6.59 to 106 µM); MIC [15]: 3.12 to 50 µg/mL (≈ 6.59 to 106 µM)
Cc1ncc([N+](=O)[O-])n1CC(O)CN1C(=O)c2cccc3c(N4CCN(CC#N)CC4)ccc(c23)C1=O (stereo not drawn)	13 to 1020 µM (≈ 6.55 to 514 µg/mL)	13 to 1020 µM (≈ 6.55 to 514 µg/mL)	13 to 1020 µM (≈ 6.55 to 514 µg/mL)	13 to 1020 µM (≈ 6.55 to 514 µg/mL)	13 to 1020 µM (≈ 6.55 to 514 µg/mL)	13 to 1020 µM (≈ 6.55 to 514 µg/mL)	13 to 1020 µM (≈ 6.55 to 514 µg/mL)	13 to 1020 µM (≈ 6.55 to 514 µg/mL)	13 to 1020 µM (≈ 6.55 to 514 µg/mL)	13 to 1020 µM (≈ 6.55 to 514 µg/mL)	
CCCCN1CCN(c2ccc3c4c(cccc24)C(=O)N(CC(O)Cn2c([N+](=O)[O-])cnc2C)C3=O)CC1 (stereo not drawn)	13 to 1020 µM (≈ 6.77 to 531 µg/mL)	13 to 1020 µM (≈ 6.77 to 531 µg/mL)	13 to 1020 µM (≈ 6.77 to 531 µg/mL)	13 to 1020 µM (≈ 6.77 to 531 µg/mL)	13 to 1020 µM (≈ 6.77 to 531 µg/mL)	13 to 1020 µM (≈ 6.77 to 531 µg/mL)	13 to 1020 µM (≈ 6.77 to 531 µg/mL)	13 to 1020 µM (≈ 6.77 to 531 µg/mL)	13 to 1020 µM (≈ 6.77 to 531 µg/mL)	13 to 1020 µM (≈ 6.77 to 531 µg/mL)	
Cc1ncc([N+](=O)[O-])n1CC(O)CN1C(=O)c2cccc3c(N4CCOCC4)ccc(c23)C1=O (stereo not drawn)	69 to 1140 µM (≈ 32.1 to 531 µg/mL)	69 to 1140 µM (≈ 32.1 to 531 µg/mL)	69 to 1140 µM (≈ 32.1 to 531 µg/mL)	69 to 1140 µM (≈ 32.1 to 531 µg/mL)	69 to 1140 µM (≈ 32.1 to 531 µg/mL)	69 to 1140 µM (≈ 32.1 to 531 µg/mL)	69 to 1140 µM (≈ 32.1 to 531 µg/mL)	69 to 1140 µM (≈ 32.1 to 531 µg/mL)	69 to 1140 µM (≈ 32.1 to 531 µg/mL)	69 to 1140 µM (≈ 32.1 to 531 µg/mL)	
Cc1nc([N+](=O)[O-])cn1Cc1nn(CNc2ccc(F)cc2)c(=S)o1											MIC [16]: 184 to 2890 µM (≈ 67 to 1050 µg/mL); MIC [17]: 184 to 2890 µM (≈ 67 to 1050 µg/mL)
Cc1nn(-c2ccccc2)c(Oc2ccc(F)cc2)c1/C=N/NC(=O)Cn1c([N+](=O)[O-])cnc1C											MIC [12]: 3.12 to 50 µg/mL (≈ 6.53 to 105 µM); MIC [13]: 3.12 to 50 µg/mL (≈ 6.53 to 105 µM); MIC [14]: 3.12 to 50 µg/mL (≈ 6.53 to 105 µM); MIC [15]: 3.12 to 50 µg/mL (≈ 6.53 to 105 µM)
Cc1ccc(Oc2c(/C=N/NC(=O)Cn3c([N+](=O)[O-])cnc3C)c(C)nn2-c2ccccc2)cc1											MIC [12]: 3.12 to 50 µg/mL (≈ 6.59 to 106 µM); MIC [13]: 3.12 to 50 µg/mL (≈ 6.59 to 106 µM); MIC [14]: 3.12 to 50 µg/mL (≈ 6.59 to 106 µM); MIC [15]: 3.12 to 50 µg/mL (≈ 6.59 to 106 µM)
CCOC(=O)c1cn(CC)c2nc(N3CCN(CCn4c([N+](=O)[O-])cnc4C)CC3)c(F)cc2c1=O											ED50 [11]: 3.5 to 13.2 mg/kg
COc1ccc(Oc2c(/C=N/NC(=O)Cn3c([N+](=O)[O-])cnc3C)c(C)nn2-c2ccc(C)cc2)cc1											MIC [12]: 3.12 to 50 µg/mL (≈ 6.2 to 99.3 µM); MIC [13]: 3.12 to 50 µg/mL (≈ 6.2 to 99.3 µM); MIC [14]: 3.12 to 50 µg/mL (≈ 6.2 to 99.3 µM); MIC [15]: 3.12 to 50 µg/mL (≈ 6.2 to 99.3 µM)
Cc1ncc([N+](=O)[O-])n1CC(O)CN1C(=O)c2cccc3c(N4CCN(CCO)CC4)ccc(c23)C1=O (stereo not drawn)	13 to 1020 µM (≈ 6.61 to 519 µg/mL)	13 to 1020 µM (≈ 6.61 to 519 µg/mL)	13 to 1020 µM (≈ 6.61 to 519 µg/mL)	13 to 1020 µM (≈ 6.61 to 519 µg/mL)	13 to 1020 µM (≈ 6.61 to 519 µg/mL)	13 to 1020 µM (≈ 6.61 to 519 µg/mL)	13 to 1020 µM (≈ 6.61 to 519 µg/mL)	13 to 1020 µM (≈ 6.61 to 519 µg/mL)	13 to 1020 µM (≈ 6.61 to 519 µg/mL)	13 to 1020 µM (≈ 6.61 to 519 µg/mL)	
CCOC(=O)c1cn(CC)c2cc(N3CCN(CCn4c([N+](=O)[O-])cnc4C)CC3)c(F)cc2c1=O											ED50 [11]: 3.5 to 13.2 mg/kg
CCN1CCN(c2ccc3c4c(cccc24)C(=O)N(CC(O)Cn2c([N+](=O)[O-])cnc2C)C3=O)CC1 (stereo not drawn)	13 to 1020 µM (≈ 6.4 to 502 µg/mL)	13 to 1020 µM (≈ 6.4 to 502 µg/mL)	13 to 1020 µM (≈ 6.4 to 502 µg/mL)	13 to 1020 µM (≈ 6.4 to 502 µg/mL)	13 to 1020 µM (≈ 6.4 to 502 µg/mL)	13 to 1020 µM (≈ 6.4 to 502 µg/mL)	13 to 1020 µM (≈ 6.4 to 502 µg/mL)	13 to 1020 µM (≈ 6.4 to 502 µg/mL)	13 to 1020 µM (≈ 6.4 to 502 µg/mL)	13 to 1020 µM (≈ 6.4 to 502 µg/mL)	
Cc1nc([N+](=O)[O-])cn1Cc1nn(CNc2ccc(Cl)cc2)c(=S)o1											MIC [16]: 184 to 2890 µM (≈ 70.1 to 1100 µg/mL); MIC [17]: 184 to 2890 µM (≈ 70.1 to 1100 µg/mL)
CCn1cc(C(=O)O)c(=O)c2cc(F)c(N3CCN(CCn4c([N+](=O)[O-])cnc4C)CC3)cc21											ED50 [11]: 2.56 to 3.88 mg/kg
COC(=O)c1cn(C2CC2)c2cc(N3CCN(CCn4c([N+](=O)[O-])cnc4C)CC3)c(F)cc2c1=O											ED50 [11]: 3.5 to 13.2 mg/kg
